Reference: patent EP1300145A1, “THERAPEUTIC OR […] FOR MOOD DISORDERS OR ANXIETY DISORDERS” (TORAY INDUSTRIES, INC., priority 2000, dated 2002)

Columns and labels:
male ICR mice = assay: forced swim test in mice (antidepressant effect); format: in vivo; conditions: for Immobility time: Saline,s.c. 136.3 ± 11.4; for antidepressant effect: subcutaneous, overall statement in words
Source text: (§1) The isoquinoline derivative represented by formula (I) has a marked effect in the forced swim test, which is the animal model for mood disorder, and in the elevated plus-maze test, which is the animal model for anxiety disorder. Thus, the isoquinoline derivative can be used as a drug for curing or preventing mood disorder or anxiety disorder of mammal and, in particular, human beings. It may also be used in manufacturing of a medicament for curing or preventing mood disorder or anxiety disorder. The evaluation using the above-described animal models can be conducted by a method described in published references [Nature vol. 266, 730 (1977) or Jpn. J. Psychopharmacol vol. 15, 125 (1995)], but the method is not limited to this.
In the experiment, male ICR mice were used. In the forced swim test, the tank for forced swim used was a transparent cylindrical tank made of plastic (inner diameter: 10 cm, height: 30 cm), and water at 25°C was contained up to 14 cm in height. A mouse was placed in water, and its swimming time during 2 to 6 minutes after placement was measured. The drug was subcutaneously administered 30 minutes before testing. The vertical axis indicates the swimming time (sec) during the measurement time (4 min). The open column indicates a saline-treated group and the hatched columns indicate Compound 1 treatment groups. All data are indicated by average ±standard error. In a significance test, the difference was assumed to be significant at a significance level of 5% or less by Dunnett's multiple comparison. In the test, the drug is assumed to have an antidepressant effect when there is an increase in swimming time under administration.
The antidepressant effect of Compound 3, 5, and 6 was assessed as in Example 3. […]

male SD rats = assay: elevated plus-maze test in rats (antianxiety effect); format: in vivo; conditions: subcutaneous; for Time spent on open arms: 30 minutes after administration, 3 minute test, Saline,s.c. 19.1 ± 6.3; for antianxiety effect: overall statement in words
Source text: as §1
The experiment was conducted on male SD rats. In the elevated plus-maze test, the elevated plus-maze (manufactured by NeuroScience, Inc.) consisting of closed arms and open arms was used. In the experiment, a rat was placed on an open arm 30 minutes after the drug administration (subcutaneous administration), and the number of entries to the open and closed arms and the time spent in the open arms were measured. The test was conducted for 3 minutes. The rat was assumed to have made entries when all four legs have entered the arm. The ratio of the time spent in the open arms and the ratio of the entries to the open arms were calculated according to the following equations: Ratio of the time spent in the open arms (%) = {(time spent in the open arms)/(total time)} × 100 [formula] Ratio of the entries to the open arms (%) = {(number of entries to the open arms)/(total number of entries)} × 100 [formula]
The vertical axis on the left indicates the ratio of the time spent in the open arms (%) and the ratio of the entries to the open arms (%). The vertical axis on the right indicates the total number of entries. The horizontal axis indicates a control group and treatment groups. Open columns indicate the ratio of the time spent in the open arms (%) and hatched columns indicate the ratio of the entries to the open arms (%). Closed circles indicate the total number of entries. All data are indicated by average ±standard error. In a significance test, the difference was assumed to be significant at a significance level of 5% or less by Dunnett's multiple comparison. In the test, the drug is assumed to have an antianxiety effect when there are an increase in time spent on open arms and an increase in ratio of entries to open arms under administration.
The antianxiety effect of Compounds 3, 5, and 6 was assessed as in Example 1. […]

[1] = 30 mg/kg, subcutaneous 30 minutes before testing
[2] = Fig. 1, compared with the control group (saline-treated group), Dunnett's multiple comparison

Structure (SMILES)	Immobility time (male ICR mice; [1]) [s]	antidepressant effect (male ICR mice)	Time spent on open arms (male SD rats; 30 mg/kg) [s]	antianxiety effect (male SD rats)	Immobility time (male ICR mice; 10 mg/kg, subcutaneous 30 minutes before testing) [s]	Time spent on open arms (male SD rats; 10 mg/kg) [s]	swimming time (male ICR mice; subcutaneous 30 minutes before testing, 2 to 6 minutes after placement, Fig. 2, compared with the control group (saline-treated group))	ratio of the entries to open arms (male SD rats; [2])	time spent in open arms (male SD rats; [2])
Cc1c2c(nc3ccccc13)C[C@@]1(c3cccc(O)c3)CCN(C)C[C@@H]1C2 (relative stereo) [Compound 3, 2-methyl-4aα-(3-hydroxyphenyl)-11-methyl-1,2,3,4,4a,5,12,12aβ-octahydro-quinolino[2,3-g]isoquinoline]	75.4 ± 11.6	significant antidepressant effect	36.6 ± 13.2	significant antianxiety effects	–	–	–	–	–
CN1CC[C@]2(c3cccc(O)c3)Cc3nc4ccccc4c(N)c3C[C@H]2C1 (relative stereo) [Compound 5, 2-methyl-4aα-(3-hydroxyphenyl)-11-amino-1,2,3,4,4a,5,12,12aβ-octahydro-quinolino[2,3-g]isoquinoline]	–	significant antidepressant effect	–	significant antianxiety effects	94.3 ± 13	25.4 ± 10.2	–	–	–
Oc1cccc([C@]23CCN(CCc4ccccc4)C[C@@H]2Cc2cc4ccccc4nc2C3)c1 (relative stereo) [Compound 6, 2-phenethyl-4aα-(3-hydroxyphenyl)-1,2,3,4,4a,5,12,12aβ-octahydro-quinolino [2,3-g]isoquinoline]	58.7 ± 9.1	significant antidepressant effect	37.9 ± 4.4	significant antianxiety effects	–	–	–	–	–
CN1CC[C@]2(c3cccc(O)c3)Cc3nc4ccccc4cc3C[C@@H]2C1 [Compound 1, (4aS,12aS)-2-methyl-4a-(3-hydroxyphenyl)-1,2,3,4,4a,5,12,12a-octahydroquinolino[2,3-g]isoquinoline]	–	confirmed to have an antidepressant effect	–	confirmed to have an antianxiety effect	–	–	dose-dependent significant increase	dose-dependent significant increase	dose-dependent significant increase
